{"source": "paper PMC5034536", "about": "“Molecular insights into substrate recognition and catalytic mechanism of the chaperone and FKBP peptidyl-prolyl isomerase SlyD” (BMC Biology, 2016)", "key": {"TtSlyDFL": {"test_system": "TtSlyDFL", "assay": "Tetrapeptide cis/trans isomerization activity by NMR lineshape analysis", "type": "biochemical, Thermus thermophilus", "description": "(§1) In order to accurately measure the catalytic activity of TtSlyDFL on peptidyl-prolyl cis/trans isomerization, we carried out Michaelis-Menten studies under equilibrium conditions using NMR lineshape analysis, which is capable of monitoring the rate of exchange between cis and trans conformations of the peptide substrate. Initially, we benchmarked the method against literature data using the standard suc-ALPF-pNA tetrapeptide (Fig. 7a). […] For the TtSlyDΔIF construct, we obtained kcat/KM = 0.85 ± 0.01 μM^−1s^−1, showing a minor influence of the IF domain.\n(§2) Lineshape analysis was performed using MATLAB."}, "TtSlyDΔIF": {"test_system": "TtSlyDΔIF", "assay": "Tetrapeptide cis/trans isomerization activity by NMR lineshape analysis", "type": "biochemical, Thermus thermophilus", "description": "as §1, §2"}, "E. coli SlyD": {"test_system": "E. coli SlyD", "conditions": "estimated, E. coli SlyD at high salt concentration; cited from earlier work"}, "human FKBP12": {"test_system": "human FKBP12", "conditions": "human FKBP12 with suc-ALPF-pNA as a substrate; ref U Weininger, unpublished data; cited from earlier work"}, "TtSlyDFL Y13F": {"molecular_target": "TtSlyDFL Y13F (Thermus thermophilus, UniProt Q5SLE7, Y13F)", "sequence (Q5SLE7 entry or part of it Y13F)": "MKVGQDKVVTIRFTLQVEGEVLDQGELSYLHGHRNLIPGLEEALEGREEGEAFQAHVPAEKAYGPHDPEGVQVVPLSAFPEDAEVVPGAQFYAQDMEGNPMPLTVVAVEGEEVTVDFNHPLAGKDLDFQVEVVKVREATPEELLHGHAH", "assay": "Tetrapeptide activity by NMR lineshape analysis", "protocol": "(§3) Although the kcat/KM and KD values refer to different substrates, this analysis should provide valuable insights into the relative impact of a given mutation on binding and turnover.\n(§4) NMR samples contained TtSlyD in 20 mM HEPES, 100 mM NaCl, pH 7.5, and 10 % (v/v) D2O. All experiments were performed at a static magnetic field strength of 14.1 T and a temperature of 25 °C. […] Lineshape analysis was performed using MATLAB.\n(§5) For tetrapeptide activity studies, one-dimensional ^1H spectra of 500 μM suc-ALPF-pNA tetrapeptide containing 2 μM, 4 μM, or 6 μM of TtSlyD were recorded for the different mutants [59]."}, "TtSlyDFL D23A": {"molecular_target": "TtSlyDFL D23A (Thermus thermophilus, UniProt Q5SLE7, D23A)", "sequence (Q5SLE7 entry or part of it D23A)": "as the sequence (Q5SLE7 entry or part of it Y13F) above, with F13Y, D23A counted along it", "assay": "Tetrapeptide activity by NMR lineshape analysis", "protocol": "as §3, §4, §5"}, "TtSlyDFL N35A": {"molecular_target": "TtSlyDFL N35A (Thermus thermophilus, UniProt Q5SLE7, N35A)", "sequence (Q5SLE7 entry or part of it N35A)": "as the sequence (Q5SLE7 entry or part of it Y13F) above, with F13Y, N35A counted along it", "assay": "Tetrapeptide activity by NMR lineshape analysis", "protocol": "as §3, §4, §5"}, "TtSlyDFL I37G": {"molecular_target": "TtSlyDFL I37G (Thermus thermophilus, UniProt Q5SLE7, I37G)", "sequence (Q5SLE7 entry or part of it I37G)": "as the sequence (Q5SLE7 entry or part of it Y13F) above, with F13Y, I37G counted along it", "assay": "Tetrapeptide activity by NMR lineshape analysis", "protocol": "as §3, §4, §5"}, "TtSlyDFL Y63F": {"molecular_target": "TtSlyDFL Y63F (Thermus thermophilus, UniProt Q5SLE7, Y63F)", "sequence (Q5SLE7 entry or part of it Y63F)": "as the sequence (Q5SLE7 entry or part of it Y13F) above, with F13Y, Y63F counted along it", "assay": "Tetrapeptide activity by NMR lineshape analysis", "protocol": "as §3, §4, §5"}, "TtSlyDFL Y63A": {"molecular_target": "TtSlyDFL Y63A (Thermus thermophilus, UniProt Q5SLE7, Y63A)", "sequence (Q5SLE7 entry or part of it Y63A)": "as the sequence (Q5SLE7 entry or part of it Y13F) above, with F13Y, Y63A counted along it", "assay": "Tetrapeptide activity by NMR lineshape analysis", "protocol": "as §4, §5"}, "TtSlyDFL A78G": {"molecular_target": "TtSlyDFL A78G (Thermus thermophilus, UniProt Q5SLE7, A78G)", "sequence (Q5SLE7 entry or part of it A78G)": "as the sequence (Q5SLE7 entry or part of it Y13F) above, with F13Y, A78G counted along it", "assay": "Tetrapeptide activity by NMR lineshape analysis", "protocol": "as §4, §5"}, "TtSlyDFL Y92A": {"molecular_target": "TtSlyDFL Y92A (Thermus thermophilus, UniProt Q5SLE7, Y92A)", "sequence (Q5SLE7 entry or part of it Y92A)": "as the sequence (Q5SLE7 entry or part of it Y13F) above, with F13Y, Y92A counted along it", "assay": "Tetrapeptide activity by NMR lineshape analysis", "protocol": "as §4, §5"}, "TtSlyDFL Q94A": {"molecular_target": "TtSlyDFL Q94A (Thermus thermophilus, UniProt Q5SLE7, Q94A)", "sequence (Q5SLE7 entry or part of it Q94A)": "as the sequence (Q5SLE7 entry or part of it Y13F) above, with F13Y, Q94A counted along it", "assay": "Tetrapeptide activity by NMR lineshape analysis", "protocol": "as §4, §5"}, "TtSlyDFL M96A": {"molecular_target": "TtSlyDFL M96A (Thermus thermophilus, UniProt Q5SLE7, M96A)", "sequence (Q5SLE7 entry or part of it M96A)": "as the sequence (Q5SLE7 entry or part of it Y13F) above, with F13Y, M96A counted along it", "assay": "Tetrapeptide activity by NMR lineshape analysis", "protocol": "as §4, §5"}, "TtSlyDFL H119A": {"molecular_target": "TtSlyDFL H119A (Thermus thermophilus, UniProt Q5SLE7, H119A)", "sequence (Q5SLE7 entry or part of it H119A)": "as the sequence (Q5SLE7 entry or part of it Y13F) above, with F13Y, H119A counted along it", "assay": "Tetrapeptide activity by NMR lineshape analysis", "protocol": "(§6) NMR samples contained TtSlyD in 20 mM HEPES, 100 mM NaCl, pH 7.5, and 10 % (v/v) D2O. All experiments were performed at a static magnetic field strength of 14.1 T and a temperature of 25 °C. The spectra were processed with NMRpipe [57] and analyzed with NMRview [58], except one-dimensional spectra, which were processed and analyzed using VNMRJ (Agilent, Inc.). Lineshape analysis was performed using MATLAB.\nas §5"}, "TtSlyDFL F128A": {"molecular_target": "TtSlyDFL F128A (Thermus thermophilus, UniProt Q5SLE7, F128A)", "sequence (Q5SLE7 entry or part of it F128A)": "as the sequence (Q5SLE7 entry or part of it Y13F) above, with F13Y, F128A counted along it", "assay": "Tetrapeptide activity by NMR lineshape analysis", "protocol": "as §6, §5"}, "[1]": {"conditions": "substrate 500 μM suc-ALPF-pNA, NMR lineshape analysis, 25 °C"}, "[2]": {"conditions": "suc-ALPF-pNA, relative to wild-type TtSlyDFL"}}, "note": "Where “and” joins values, the source holds several entries; their conditions need not be identical. Equal entries are not always repeated."}
{"substance": "succinyl-Ala-Leu-Pro-Phe-4-nitroanilide [suc-ALPF-pNA]", "values": [{"measurement": "kcat", "setting": "TtSlyDFL; TtSlyD, suc-ALPF-pNA tetrapeptide as substrate", "value": "> 10,000 s^−1"}, {"measurement": "kcat/KM", "setting": "TtSlyDFL; TtSlyDFL, 500 μM suc-ALPF-pNA, enzyme concentration varied, linear regression, 25 °C", "value": "1.47 ± 0.05 10^6 M^−1s^−1 and 1.5 10^6 M^−1s^−1"}, {"measurement": "Activity (kcat/KM)", "setting": "TtSlyDFL; wild-type TtSlyDFL, substrate 500 μM suc-ALPF-pNA, NMR lineshape analysis, 25 °C", "value": "1.47 ± 0.05 10^6 M^-1 s^-1"}, {"measurement": "kcat/KM", "setting": "TtSlyDFL; wild-type TtSlyDFL, suc-ALPF-pNA as substrate, NMR lineshape analysis, equilibrium conditions, 25 °C", "value": "1.47 ± 0.05", "unit": "µM⁻¹ s⁻¹"}, {"measurement": "Relative activity", "setting": "TtSlyDFL; wild-type TtSlyDFL, suc-ALPF-pNA, reference", "value": 100, "unit": "%"}, {"measurement": "kcat/KM", "setting": "TtSlyDΔIF; 500 μM suc-ALPF-pNA, enzyme concentration varied, linear regression, 25 °C", "value": "0.85 ± 0.01 10^6 M^−1s^−1"}, {"measurement": "Activity (kcat/KM)", "setting": "TtSlyDΔIF; [1]", "value": "0.85 ± 0.01 10^6 M^-1 s^-1"}, {"measurement": "kcat/KM", "setting": "TtSlyDΔIF; suc-ALPF-pNA as substrate, NMR lineshape analysis, 25 °C", "value": "0.85 ± 0.01", "unit": "µM⁻¹ s⁻¹"}, {"measurement": "Relative activity", "setting": "TtSlyDΔIF; [2]", "value": 58, "unit": "%"}, {"measurement": "Kd", "setting": "E. coli SlyD", "value": "~44", "unit": "µM"}, {"measurement": "kcat", "setting": "human FKBP12", "value": "above 10,000 s^−1"}, {"measurement": "Activity (kcat/KM)", "setting": "TtSlyDFL Y13F; [1]", "value": "1.35 ± 0.17 10^6 M/s"}, {"measurement": "Relative activity", "setting": "TtSlyDFL Y13F; [2]", "value": 92, "unit": "%"}, {"measurement": "Activity (kcat/KM)", "setting": "TtSlyDFL D23A; [1]", "value": "1.15 ± 0.21 10^6 M/s"}, {"measurement": "Relative activity", "setting": "TtSlyDFL D23A; [2]", "value": 78, "unit": "%"}, {"measurement": "Activity (kcat/KM)", "setting": "TtSlyDFL N35A; [1]", "value": "1.04 ± 0.28 10^6 M/s"}, {"measurement": "Relative activity", "setting": "TtSlyDFL N35A; [2]", "value": 71, "unit": "%"}, {"measurement": "Activity (kcat/KM)", "setting": "TtSlyDFL I37G; [1]", "value": "0.73 ± 0.12 10^6 M/s"}, {"measurement": "Relative activity", "setting": "TtSlyDFL I37G; [2]", "value": 50, "unit": "%"}, {"measurement": "Activity (kcat/KM)", "setting": "TtSlyDFL Y63F; [1]", "value": "1.12 ± 0.11 10^6 M/s"}, {"measurement": "Relative activity", "setting": "TtSlyDFL Y63F; [2]", "value": 76, "unit": "%"}, {"measurement": "Activity (kcat/KM)", "setting": "TtSlyDFL Y63A; [1]", "value": "0.31 ± 0.19 10^6 M/s"}, {"measurement": "Relative activity", "setting": "TtSlyDFL Y63A; [2]", "value": 21, "unit": "%"}, {"measurement": "Activity (kcat/KM)", "setting": "TtSlyDFL A78G; [1]", "value": "0.76 ± 0.14 10^6 M/s"}, {"measurement": "Relative activity", "setting": "TtSlyDFL A78G; [2]", "value": 52, "unit": "%"}, {"measurement": "Activity (kcat/KM)", "setting": "TtSlyDFL Y92A; [1]", "value": "0.53 ± 0.12 10^6 M/s"}, {"measurement": "Relative activity", "setting": "TtSlyDFL Y92A; [2]", "value": 36, "unit": "%"}, {"measurement": "Activity (kcat/KM)", "setting": "TtSlyDFL Q94A; [1]", "value": "1.44 ± 0.49 10^6 M/s"}, {"measurement": "Relative activity", "setting": "TtSlyDFL Q94A; [2]", "value": 98, "unit": "%"}, {"measurement": "Activity (kcat/KM)", "setting": "TtSlyDFL M96A; [1]", "value": "0.58 ± 0.15 10^6 M/s"}, {"measurement": "Relative activity", "setting": "TtSlyDFL M96A; [2]", "value": 39, "unit": "%"}, {"measurement": "Activity (kcat/KM)", "setting": "TtSlyDFL H119A; [1]", "value": "1.23 ± 0.02 10^6 M/s"}, {"measurement": "Relative activity", "setting": "TtSlyDFL H119A; [2]", "value": 84, "unit": "%"}, {"measurement": "Activity (kcat/KM)", "setting": "TtSlyDFL F128A; [1]", "value": "0.52 ± 0.16 10^6 M/s"}, {"measurement": "Relative activity", "setting": "TtSlyDFL F128A; [2]", "value": 35, "unit": "%"}]}
